# Data from ChEMBL document CHEMBL3885861, “Open TG-GATES”.
# Species on record: Rattus norvegicus
# Test: Open TG-GATES - Regimen: Daily Repeat
# Type: toxicity, organism-based, Sprague-Dawley
# Set-up: regimen Daily Repeat, gender Male, age 6 weeks
# Conditions: in vivo, po, 1000 mg/kg, route gavage, dose level High; for APTT / Bas / Eos / Fbg / Hb / Ht / Lym / MCH / MCHC / MCV / Mono / Neu / PT / Plat / RBC / Ret / WBC: tissue Blood; for KIDNEY_L / KIDNEY_R / KIDNEY_TOTAL: tissue Kidney; for LIVER: tissue Liver; for A/G / ALP / ALT / AST / BUN / CRE / Ca / Cl / DBIL / GLC / IP / K / LDH / Na / PL / RALB / TBIL / TC / TG / TP / gamma-GTP: tissue Plasma
structure (smiles),measurement,setting,value
CC[C@@H](CO)NCCN[C@@H](CC)CO [ETHAMBUTOL],TERMINAL_BW,"72 h, time 3 day",233.6 g
same,APTT,"72 h, time 3 day",19.9 s
same,Bas,"72 h, time 3 day",0%
same,Eos,"72 h, time 3 day",0.8%
same,Fbg,"72 h, time 3 day",303.8 mg/dL
same,Hb,"72 h, time 3 day",13.5 g/dL
same,Ht,"72 h, time 3 day",38.6%
same,Lym,"72 h, time 3 day",77.8%
same,MCH,"72 h, time 3 day",21.4 pg
same,MCHC,"72 h, time 3 day",35%
same,MCV,"72 h, time 3 day",61 fL
same,Mono,"72 h, time 3 day",3.2%
same,Neu,"72 h, time 3 day",16.6%
same,PT,"72 h, time 3 day",16.3 s
same,Plat,"72 h, time 3 day",122.5 x10_4/uL
same,RBC,"72 h, time 3 day",633.2 x10_4/ul
same,Ret,"72 h, time 3 day",4.8%
same,WBC,"72 h, time 3 day",84.1 x10_2/uL
same,KIDNEY_L,"72 h, time 3 day",1 g
same,KIDNEY_R,"72 h, time 3 day",1.1 g
same,KIDNEY_TOTAL,"72 h, time 3 day",2.1 g
same,LIVER,"72 h, time 3 day",12.7 g
same,A/G,"72 h, time 3 day",1.2
same,ALP,"72 h, time 3 day",1656 IU/L
same,ALT,"72 h, time 3 day",49 IU/L
same,AST,"72 h, time 3 day",88.2 IU/L
same,BUN,"72 h, time 3 day",21 mg/dL
same,CRE,"72 h, time 3 day",0.2 mg/dL
same,Ca,"72 h, time 3 day",10.6 mg/dL
same,Cl,"72 h, time 3 day",108 meq/L
same,DBIL,"72 h, time 3 day",0.002 mg/dL
same,GLC,"72 h, time 3 day",177.8 mg/dL
same,IP,"72 h, time 3 day",8.1 mg/dL
same,K,"72 h, time 3 day",4 meq/L
same,LDH,"72 h, time 3 day",160.8 IU/L
same,Na,"72 h, time 3 day",140 meq/L
same,PL,"72 h, time 3 day",163.8 mg/dL
same,RALB,"72 h, time 3 day",3 g/dL
same,TBIL,"72 h, time 3 day",0.026 mg/dL
same,TC,"72 h, time 3 day",99.6 mg/dL
same,TG,"72 h, time 3 day",41.2 mg/dL
same,TP,"72 h, time 3 day",5.5 g/dL
same,gamma-GTP,"72 h, time 3 day",1.6 IU/L
same,TERMINAL_BW,"[…], time 7 day",220.6 g
same,TERMINAL_BW,"[…], time 14 day",208.8 g
same,TERMINAL_BW,"[…], time 28 day",151.9 g
same,APTT,"[…], time 7 day",19.7 s
same,Bas,"[…], time 7 day",0%
same,Eos,"[…], time 7 day",0.8%
same,Fbg,"[…], time 7 day",167.4 mg/dL
same,Hb,"[…], time 7 day",16.1 g/dL
same,Ht,"[…], time 7 day",46.3%
same,Lym,"[…], time 7 day",73.8%
same,MCH,"[…], time 7 day",20.8 pg
same,MCHC,"[…], time 7 day",34.7%
same,MCV,"[…], time 7 day",59.8 fL
same,Mono,"[…], time 7 day",3.4%
same,Neu,"[…], time 7 day",19.4%
same,PT,"[…], time 7 day",19.6 s
same,Plat,"[…], time 7 day",116.6 x10_4/uL
same,RBC,"[…], time 7 day",774.8 x10_4/ul
same,Ret,"[…], time 7 day",2%
same,WBC,"[…], time 7 day",71 x10_2/uL
same,APTT,"[…], time 14 day",21.5 s
same,Bas,"[…], time 14 day",0%
same,Eos,"[…], time 14 day",1.2%
same,Fbg,"[…], time 14 day",228 mg/dL
same,Hb,"[…], time 14 day",15.5 g/dL
same,Ht,"[…], time 14 day",44.6%
same,Lym,"[…], time 14 day",83.2%
same,MCH,"[…], time 14 day",19.4 pg
same,MCHC,"[…], time 14 day",34.8%
same,MCV,"[…], time 14 day",55.6 fL
same,Mono,"[…], time 14 day",2.2%
same,Neu,"[…], time 14 day",12.4%
same,PT,"[…], time 14 day",18.1 s
same,Plat,"[…], time 14 day",126 x10_4/uL
same,RBC,"[…], time 14 day",800.4 x10_4/ul
same,Ret,"[…], time 14 day",0.5%
same,WBC,"[…], time 14 day",95.8 x10_2/uL
same,APTT,"[…], time 28 day",27.6 s
same,Bas,"[…], time 28 day",0%
same,Eos,"[…], time 28 day",0.3%
same,Fbg,"[…], time 28 day",252 mg/dL
same,Hb,"[…], time 28 day",17.2 g/dL
same,Ht,"[…], time 28 day",49.9%
same,Lym,"[…], time 28 day",41.3%
same,MCH,"[…], time 28 day",18 pg
same,MCHC,"[…], time 28 day",34.6%
same,MCV,"[…], time 28 day",52 fL
same,Mono,"[…], time 28 day",8.3%
same,Neu,"[…], time 28 day",46.7%
same,PT,"[…], time 28 day",19.9 s
same,Plat,"[…], time 28 day",105.7 x10_4/uL
same,RBC,"[…], time 28 day",960 x10_4/ul
same,Ret,"[…], time 28 day",0.7%
same,WBC,"[…], time 28 day",102.9 x10_2/uL
same,KIDNEY_L,"[…], time 7 day",1 g
same,KIDNEY_R,"[…], time 7 day",1.1 g
same,KIDNEY_TOTAL,"[…], time 7 day",2.1 g
same,KIDNEY_L,"[…], time 14 day",1 g
same,KIDNEY_R,"[…], time 14 day",1 g
same,KIDNEY_TOTAL,"[…], time 14 day",2 g
same,KIDNEY_L,"[…], time 28 day",0.9 g
same,KIDNEY_R,"[…], time 28 day",0.9 g
same,KIDNEY_TOTAL,"[…], time 28 day",1.8 g
same,LIVER,"[…], time 7 day",10.6 g
same,LIVER,"[…], time 14 day",9.2 g
same,LIVER,"[…], time 28 day",6.7 g
same,A/G,"[…], time 7 day",1.2
same,ALP,"[…], time 7 day",1664.8 IU/L
same,ALT,"[…], time 7 day",76.6 IU/L
same,AST,"[…], time 7 day",165.4 IU/L
same,BUN,"[…], time 7 day",22.2 mg/dL
same,CRE,"[…], time 7 day",0.2 mg/dL
same,Ca,"[…], time 7 day",9.3 mg/dL
same,Cl,"[…], time 7 day",107.4 meq/L
same,DBIL,"[…], time 7 day",0.3 mg/dL
same,GLC,"[…], time 7 day",145.2 mg/dL
same,IP,"[…], time 7 day",8.3 mg/dL
same,K,"[…], time 7 day",4.6 meq/L
same,LDH,"[…], time 7 day",334 IU/L
same,Na,"[…], time 7 day",138.8 meq/L
same,PL,"[…], time 7 day",108 mg/dL
same,RALB,"[…], time 7 day",2.4 g/dL
same,TBIL,"[…], time 7 day",0.3 mg/dL
same,TC,"[…], time 7 day",59.6 mg/dL
same,TG,"[…], time 7 day",15.6 mg/dL
same,TP,"[…], time 7 day",4.3 g/dL
same,gamma-GTP,"[…], time 7 day",1.4 IU/L
same,A/G,"[…], time 14 day",1.1
same,ALP,"[…], time 14 day",1208.4 IU/L
same,ALT,"[…], time 14 day",53 IU/L
same,AST,"[…], time 14 day",108.6 IU/L
same,BUN,"[…], time 14 day",21.8 mg/dL
same,CRE,"[…], time 14 day",0.2 mg/dL
same,Ca,"[…], time 14 day",9.4 mg/dL
same,Cl,"[…], time 14 day",108.6 meq/L
same,DBIL,"[…], time 14 day",0.068 mg/dL
same,GLC,"[…], time 14 day",155.2 mg/dL
same,IP,"[…], time 14 day",6.8 mg/dL
same,K,"[…], time 14 day",4.1 meq/L
same,LDH,"[…], time 14 day",178.8 IU/L
same,Na,"[…], time 14 day",139.4 meq/L
same,PL,"[…], time 14 day",112.6 mg/dL
same,RALB,"[…], time 14 day",2.4 g/dL
same,TBIL,"[…], time 14 day",0.08 mg/dL
same,TC,"[…], time 14 day",61.6 mg/dL
same,TG,"[…], time 14 day",19 mg/dL
same,TP,"[…], time 14 day",4.6 g/dL
same,gamma-GTP,"[…], time 14 day",3.6 IU/L
same,A/G,"[…], time 28 day",1.1
same,ALP,"[…], time 28 day",564 IU/L
same,ALT,"[…], time 28 day",45.3 IU/L
same,AST,"[…], time 28 day",342 IU/L
same,BUN,"[…], time 28 day",34 mg/dL
same,CRE,"[…], time 28 day",0.2 mg/dL
same,Ca,"[…], time 28 day",9.8 mg/dL
same,Cl,"[…], time 28 day",116.7 meq/L
same,DBIL,"[…], time 28 day",0.1 mg/dL
same,GLC,"[…], time 28 day",321.7 mg/dL
same,IP,"[…], time 28 day",10.9 mg/dL
same,K,"[…], time 28 day",4.3 meq/L
same,LDH,"[…], time 28 day",600.7 IU/L
same,Na,"[…], time 28 day",148 meq/L
same,PL,"[…], time 28 day",102 mg/dL
same,RALB,"[…], time 28 day",2.9 g/dL
same,TBIL,"[…], time 28 day",0.2 mg/dL
same,TC,"[…], time 28 day",60 mg/dL
same,TG,"[…], time 28 day",22.3 mg/dL
same,TP,"[…], time 28 day",5.5 g/dL
same,gamma-GTP,"[…], time 28 day",5.7 IU/L
